Measured values reported in ChEMBL document CHEMBL1201862, “PubChem BioAssay data set” (2004).
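Grown in 96-well plates, cells were treated for 48 hours with each compound at five concentrations. Insufficient inhibition: endpoint recorded as highest concentration tested. The concentration for 50% growth inhibition is given as GI50.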 The source made the active and inactive calls. Cut-off read from the data, not from the text of the source: active = GI50 up to about 1.1 µM and inactive = higher.

Key:
Experiment in all cases: NCI-60 cell line screen, 48 h
[1] = tested on: LOX IMVI
[2] = tested on: HOP-62
[3] = tested on: CAKI-1
[4] = tested on: SNB-19
[5] = tested on: RPMI-8226
[6] = tested on: NCI-H226
[7] = tested on: PC-3
[8] = tested on: SF-539
[9] = tested on: IGROV-1
[10] = tested on: EKVX
[11] = tested on: OVCAR-4
[12] = tested on: T47D
[13] = tested on: NCI-H522
[14] = tested on: HCC 2998
[15] = tested on: MOLT-4
[16] = tested on: KM-20L2
[17] = tested on: A498
[18] = tested on: A549
[19] = tested on: SW-620
[20] = tested on: SNB-75

Structure (SMILES)	GI50 [1]	GI50 [2]	GI50 [3]	GI50 [4]	GI50 [5]	GI50 [6]	GI50 [7]	GI50 [8]	GI50 [9]	GI50 [10]	GI50 [11]	GI50 [12]	GI50 [13]	GI50 [14]	GI50 [15]	GI50 [16]	GI50 [17]	GI50 [18]	GI50 [19]	GI50 [20]
COc1cccc2c1C(=O)c1c(O)c3c(c(O)c1C2=O)C[C@@](O)(C(C)=O)C[C@@H]3OC1CC(N(C)C)C(O)C(C)O1 (stereo not given in full)	0.00223 µM (active)	0.00344 µM (active)	0.00904 µM (active)	0.00411 µM (active)	0.0113 µM (active)	0.029 µM (active)	0.000206 µM (active)	0.00417 µM (active)	0.00447 µM (active)	0.00485 µM (active)	0.0306 µM (active)	0.000196 µM (active)	0.0046 µM (active)	0.0333 µM (active)	0.00309 µM (active)	0.00603 µM (active)	0.00464 µM (active)	0.00617 µM (active)	0.00348 µM (active)	0.00346 µM (active)
CC(C)(C)N1CC1CNC(=O)C(=O)NCC1CN1C(C)(C)C (stereo not given)	8.24 µM (inactive)	1.31 µM (inactive)	6.31 µM (inactive)	13.7 µM (inactive)	5.86 µM (inactive)	7.83 µM (inactive)	14.9 µM (inactive)	2.94 µM (inactive)	5.83 µM (inactive)	14.2 µM (inactive)	28.5 µM (inactive)	22.2 µM (inactive)	1.31 µM (inactive)	3.16 µM (inactive)	1.57 µM (inactive)	1.65 µM (inactive)	2.68 µM (inactive)	3.93 µM (inactive)	3.08 µM (inactive)	4.32 µM (inactive)
CCCCCCCCCCCCCCCCCC(=O)Nc1ccn(C2OC(CO)C(O)C2O)c(=O)n1 (stereo not given)	9.89 µM (inactive)	2.8 µM (inactive)	10.5 µM (inactive)	19.4 µM (inactive)	31.6 µM (inactive)	> 90.2 µM (inactive)	4.92 µM (inactive)	> 76.6 µM (inactive)	39 µM (inactive)	> 100 µM (inactive)	> 100 µM (inactive)	> 100 µM (inactive)	5.04 µM (inactive)	8.36 µM (inactive)	0.343 µM (active)	32.1 µM (inactive)	15.3 µM (inactive)	2.99 µM (inactive)	57.1 µM (inactive)	52.6 µM (inactive)
Nc1ccc2c(c1)CN1C(=O)c3ccccc3C1=N2 [DANIQUIDONE]	35.7 µM (inactive)	9.71 µM (inactive)	41.4 µM (inactive)	29 µM (inactive)	74.6 µM (inactive)	45.9 µM (inactive)	58.1 µM (inactive)	10.3 µM (inactive)	34.2 µM (inactive)	51.3 µM (inactive)	91.8 µM (inactive)	52.5 µM (inactive)	45.3 µM (inactive)	63 µM (inactive)	3.77 µM (inactive)	59 µM (inactive)	43.1 µM (inactive)	31 µM (inactive)	24.5 µM (inactive)	30.2 µM (inactive)
